Laboratory results reported in patent publication EP4667466A1, “PROTAC DEGRADERS OF MLLT1 AND/OR MLLT3” (priority 2024, dated 2025).

Target: T1, MLLT1 (Homo sapiens, UniProt Q03111)
T1 construct: endogenous in cells; host or cells: MV4-11 (ATCC CRL-9591)
T1 sequence (Q03111 1-559): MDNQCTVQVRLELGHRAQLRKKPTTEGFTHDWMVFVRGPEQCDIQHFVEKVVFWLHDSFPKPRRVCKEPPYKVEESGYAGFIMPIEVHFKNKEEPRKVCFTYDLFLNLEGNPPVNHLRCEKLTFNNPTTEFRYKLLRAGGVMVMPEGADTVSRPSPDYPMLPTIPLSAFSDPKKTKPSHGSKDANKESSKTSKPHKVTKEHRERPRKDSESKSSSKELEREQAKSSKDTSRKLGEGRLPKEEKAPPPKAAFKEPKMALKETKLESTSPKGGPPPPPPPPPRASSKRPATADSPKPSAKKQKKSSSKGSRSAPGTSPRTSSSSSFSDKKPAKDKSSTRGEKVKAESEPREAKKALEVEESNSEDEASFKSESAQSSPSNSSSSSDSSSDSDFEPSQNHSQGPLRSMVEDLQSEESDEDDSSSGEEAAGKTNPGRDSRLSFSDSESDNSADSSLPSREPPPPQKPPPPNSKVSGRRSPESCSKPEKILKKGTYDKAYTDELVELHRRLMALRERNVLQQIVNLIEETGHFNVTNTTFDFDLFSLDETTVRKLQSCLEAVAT
Assay: MLLT1 degradation assay (JESS automated chemiluminescent detection) in MV4-11 cells
Assay type: cell-based
Conditions: 24h, with respect to DMSO control
Method: MLLT1 degradation efficacy of compounds was tested in an automated chemiluminescent detection system (JESS, Cat# 004-650). MV4-11 (#CRL-9591, ATCC) cells were seeded at a density of 1.2 million cells/well in a non-treated 6-well cell culture plate in 2.4 mL of complete medium (IMDM + 10% FBS + 1X Penicillin-Streptomycin). 10 mM DMSO stocks were prepared, and cells were treated with three concentrations of test compounds viz. 1000, 100 and 10 nM at a final DMSO concentration of 0.1% and incubated for 24h at 37°C, 5% CO2. Post incubation, cells were centrifuged, washed with HBSS and lysed in 70 uL of RIPA buffer supplemented with Protease inhibitors (sc-24948; Santa Cruz). Subsequently, protein estimation was done using BCA protein assay kit (23225; Pierce). 4 ug protein lysate (4 uL of 1ug/uL lysate) was loaded into each well of the JESS cartridge (SM-WO01; Bio-techne) and the JESS run was performed using 1:900 dilution of anti-human MLLT1 antibody (14893; Cell signaling technology) and 1:1200 dilution of anti-human GAPDH antibody (2118; Cell signaling technology) with anti-rabbit secondary detection module (DM-001; Bio-Techne). Post run, data were analysed using "Compass for SW" software for chemiluminescent detection. The peak area for each band was used for the calculation of MLLT1 degradation with respect to DMSO control. Data is shown as "MLLT1 % degradation". Category A: A ≥ 75% degradation Category B: 50% ≤ B < 75% degradation Category C: 25% ≤ C < 50% degradation Category D: D < 25% degradation Table 1

| inhibition at 0.01 µM | inhibition at 0.1 µM | inhibition at 1 µM | Compound |
| --- | --- | --- | --- |
| 25 to 50% | 50 to 75% | ≥ 75% | Cc1nn(CCCOCC#Cc2cccc3c2CN(C2CCC(=O)NC2=O)C3=O)c2cc(C(=O)Nc3cc4[nH]c([C@H]5CCCN5C)cc4cn3)ccc12 (stereo partly drawn) [Example 31, 1-(3-((3-(2-(2,6-dioxopiperidin-3-yl)-1-oxoisoindolin-4-yl)prop-2-yn-1-yl)oxy)propyl)-3-methyl-N-(2-((R)-1-methylpyrrolidin-2-yl)-1H-pyrrolo[3,2-c]pyridin-6-yl)-1H-indazole-6-carboxamide] |
| ≥ 75% | ≥ 75% | ≥ 75% | Cc1nn(CCCCCCCC#Cc2ccc(F)c3c2CN(C2CCC(=O)NC2=O)C3=O)c2cc(C(=O)Nc3cc4[nH]c([C@H]5CCCN5C)c(Cl)c4cn3)ccc12 (stereo partly drawn) [Example 67, N-(3-chloro-2-((R)-1-methylpyrrolidin-2-yl)-1H-pyrrolo[3,2-c]pyridin-6-yl)-1-(9-(2-(2,6-dioxopiperidin-3-yl)-7-fluoro-1-oxoisoindolin-4-yl)non-8-yn-1-yl)-3-methyl-1H indazole-6-carboxamide] |
| 50 to 75% | 50 to 75% | ≥ 75% | Cc1nn(C2CCC(CCCC#Cc3cccc4c3CN(C3CCC(=O)NC3=O)C4=O)CC2)c2cc(C(=O)Nc3cc4[nH]c([C@H]5CCCN5C)cc4cn3)ccc12 (stereo partly drawn) [Example 74, 1-(4-(5-(2-(2,6-dioxopiperidin-3-yl)-1-oxoisoindolin-4-yl)pent-4-yn-1-yl)cyclohexyl)-3-methyl-N-(2-((R)-1-methylpyrrolidin-2-yl)-1H-pyrrolo[3,2-c]pyridin-6-yl)-1H-indazole-6-carboxamide] |
| 25 to 50% | 50 to 75% | ≥ 75% | Cc1nn(CCCCCCCC#Cc2cc3c(cc2F)C(=O)N(C2CCC(=O)NC2=O)C3)c2cc(C(=O)Nc3cc4[nH]c([C@H]5CCCN5C)cc4cn3)ccc12 (stereo partly drawn) [Example 60, 1-(9-(2-(2,6-dioxopiperidin-3-yl)-6-fluoro-1-oxoisoindolin-5-yl)non-8-yn-1-yl)-3-methyl-N-(2-((R)-1-methylpyrrolidin-2-yl)-1H-pyrrolo[3,2-c]pyridin-6-yl)-1H-indazole-6-carboxamide] |
| < 25% | < 25% | 50 to 75% | Cc1nn(CCCCCN2CCN(c3cccc4c3C(=O)N(C3CCC(=O)NC3=O)C4=O)CC2)c2cc(C(=O)Nc3cc4[nH]c([C@H]5CCCN5C)cc4cn3)ccc12 (stereo partly drawn) [Example 47, 1-(5-(4-(2-(2,6-dioxopiperidin-3-yl)-1,3-dioxoisoindolin-4-yl)piperazin-1-yl)pentyl)-3-methyl-N-(2-((R)-1-methylpyrrolidin-2-yl)-1H-pyrrolo[3,2-c]pyridin-6-yl)-1H-indazole-6-carboxamide] |
| 25 to 50% | ≥ 75% | ≥ 75% | Cc1nn(CCCCCCCC#Cc2cccc(C3CCC(=O)NC3=O)c2F)c2cc(C(=O)Nc3cc4[nH]c([C@H]5CCCN5C)cc4cn3)ccc12 (stereo partly drawn) [Example 61, 1-(9-(3-(2,6-dioxopiperidin-3-yl)-2-fluorophenyl)non-8-yn-1-yl)-3-methyl-N-(2-((R)-1-methylpyrrolidin-2-yl)-1H-pyrrolo [3,2-c]pyridin-6-yl)-1H-indazole-6-carboxamide] |
| ≥ 75% | ≥ 75% | ≥ 75% | Cc1nn(CCCCCCCCC#Cc2cccc3c2CN(C2CCC(=O)NC2=O)C3=O)c2cc(C(=O)Nc3cc4[nH]c([C@H]5CCCN5C)cc4cn3)ccc12 (stereo partly drawn) [Example 54, 1-(10-(2-(2,6-dioxopiperidin-3-yl)-1-oxoisoindolin-4-yl)dec-9-yn-1-yl)-3-methyl-N-(2-((R)-1-methylpyrrolidin-2-yl)-1H-pyrrolo[3,2-c]pyridin-6-yl)-1H-indazole-6-carboxamide] |
